Laboratory results published in patent EP4574819A1, “DIAZINONE COMPOUNDS FOR THE CONTROL OF INVERTEBRATE PESTS” (priority 2023, dated 2025).

Legend:
Assay type in all cases: in vivo
[1] = test system: Boll weevil (Anthonomus grandis); assay: Boll weevil (Anthonomus grandis) egg/larval mortality on sprayed insect diet in 96-well microtiter plates; conditions: 2500 ppm; egg and larval mortality after 5 days; in comparison with untreated controls
Procedure: B.2 Boll weevil (Anthonomus grandis)
For evaluating control of boll weevil (Anthonomus grandis) the test unit consists of 96-well-microtiter plates containing an insect diet and 5-10 A. grandis eggs.
The compounds are formulated using a solution containing 75% v/v water and 25% v/v DMSO. Different concentrations of formulated compounds are sprayed onto the insect diet at 5µl, using a custom-built micro atomizer, at two replications.
After application, microtiter plates are incubated at about 25 ± 1°C and about 75 ± 5 % relative humidity for 5 days. Egg and larval mortality is then visually assessed.

[2] = test system: Diamond back moth (Plutella xylostella); assay: Diamond back moth (Plutella xylostella) cabbage leaf dip test; conditions: 3rd instar larvae, 72 hours after treatment, in comparison with untreated controls
Procedure: B.3 Diamond back moth (Plutella xylostella)
The active compound was dissolved at the desired concentration in a mixture of 1:1 (vol:vol) distilled water: acetone. Surfactant (Kinetic HV) was added at a rate of 0.01% (vol/vol). The test solution was prepared on the day of use.
Leaves of cabbage were dipped in test solution and air-dried. Treated leaves were placed in petri dishes lined with moist filter paper and inoculated with ten 3rd instar larvae. Mortality was recorded 72 hours after treatment. Feeding damages were also recorded using a scale of 0-100%.

[3] = test system: Yellow fever mosquito (Aedes aegypti); assay: whole plant or invertebrate; conditions: larval mortality after 2 days, in comparison with untreated controls
Procedure: B.4 Yellow fever mosquito (Aedes aegypti)
For evaluating control of yellow fever mosquito (Aedes aegypti) the test unit consists of 96-well-microtiter plates containing 200µl of tap water per well and 5-15 freshly hatched A. aegypti larvae.
The active compounds are formulated using a solution containing 75% (v/v) water and 25% (v/v) DMSO. Different concentrations of formulated compounds or mixtures are sprayed onto the insect diet at 2.5µl, using a custom-built micro atomizer, at two replications.
After application, microtiter plates are incubated at 28±1°C, 80±5 % RH for 2 days. Larval mortality is then visually assessed.

[4] = test system: Green peach aphid (Myzus persicae); assay: Green peach aphid (Myzus persicae) systemic test, artificial diet under artificial membrane; conditions: adult aphids, 3 days, in comparison with untreated controls
Text: B.5 Green peach aphid (Myzus persicae)
For evaluating control of green peach aphid (Myzus persicae) through systemic means, the test unit consisted of 96-well-microtiter plates containing liquid artificial diet under an artificial membrane.
The compounds were formulated using a solution containing 75% v/v water and 25% v/v DMSO. Different concentrations of formulated compounds were pipetted into the aphid diet, using a custom built pipetter, at two replications.
After application, 5 - 8 adult aphids were placed on the artificial membrane inside the microtiter plate wells. The aphids were then allowed to suck on the treated aphid diet and incubated at about 23 ± 1°C and about 50 ± 5 % relative humidity for 3 days. Aphid mortality and fecundity was then visually assessed.

[5] = test system: Tobacco budworm (Heliothis virescens); assay: Tobacco budworm (Heliothis virescens) egg/larval mortality on sprayed insect diet in 96-well microtiter plates; conditions: 120 h, egg and larval mortality after 5 days, in comparison with untreated controls
Procedure: B.1 Tobacco budworm (Heliothis virescens)
For evaluating control of tobacco budworm (Heliothis virescens) the test unit consists of 96-well-microtiter plates containing an insect diet and 15-25 H. virescens eggs.
The compounds are formulated using a solution containing 75% v/v water and 25% v/v DMSO. Different concentrations of formulated compounds are sprayed onto the insect diet at 10µl, using a custom-built micro atomizer, at two replications.
After application, microtiter plates are incubated at about 28 ± 1°C and about 80 ± 5 % relative humidity for 5 days. Egg and larval mortality is then visually assessed.

Structure (SMILES)	mortality [1]	mortality ([2]; 2500 ppm)	mortality ([3]; 2500 ppm)	mortality ([4]; 2500 ppm)	mortality at 2500 ppm ([2]; Plutella xylostella, foliar)	mortality at 2500 ppm ([3]; Aedes aegypti, 48 h)	mortality at 2500 ppm [5]	mortality at 2500 ppm ([4]; Myzus persicae, 72 h)
CC(NC(=O)c1cc(C(F)(F)F)cc(C(F)(F)F)c1)c1nccnc1C1=NNC(=O)CN1C (centres unmarked) [Compound I-1, N-(1-(3-(4-Methyl-6-oxo-1,4,5,6-tetrahydro-1,2,4-triazin-3-yl)pyrazin-2-yl)ethyl)-3,5-bis(trifluoromethyl)benzamide]	at least 75%	at least 75%	at least 75%	at least 75%				
CC(NC(=O)c1cc(C(F)(F)F)cc(C(F)(F)F)c1)c1nccnc1C1=NN(C)C(=O)CO1 (centres unmarked) [Compound I-4, N-(1-(3-(4-methyl-5-oxo-5,6-dihydro-4H-1,3,4-oxadiazin-2-yl)pyrazin-2-yl)ethyl)-3,5-bis(trifluoromethyl)benzamide]					≥ 75%	≥ 75%	≥ 75%	≥ 75%
